# According to US7709484B1, “Substituted melanocortin receptor-specific piperazine compounds” (Palatin Technologies, Inc., priority 2004, dated 2010):
# Columns and labels:
# [1] = target: hMC1-R (Homo sapiens, UniProt Q01726); test: Competitive inhibition binding assay, 125I-NDP-α-MSH, hMC1-R membranes; details: 1 μM test compound; 0.4 nM 125I-NDP-α-MSH; mean of triplicate; results less than 0% reported as 0%; read-out: Inhibition at 1 μM MC1-R (human)
# Procedure: (§1) Competitive inhibition assay. A competitive inhibition binding assay was conducted using membranes prepared from hMC1-R or B-16 mouse melanoma cells (containing MC1-R), hMC3-R, hMC4-R, and hMC5-R, and using 0.4 nM ^125I-NDP-α-MSH (New England Nuclear, Boston, Mass., USA) in 50 mM HEPES buffer containing 1 mM MgCl2, 2 mM CaCl2, and 5 mM KCl, at pH 7.2. The assay tube also contained a chosen concentration of the test compound of this invention, typically a 1 μM concentration, for determining its efficacy in inhibiting the binding of ^125I-NDP-α-MSH to its receptor. Non-specific binding was measured by complete inhibition of binding of ^125I-NDP-α-MSH in the assay with the presence of 1 μM α-MSH.
# (§2) Incubation was for 90 minutes at room temperature, after which the assay mixture was filtered and the membranes washed three times with ice cold buffer. The filter was dried and counted in a gamma counter for remaining radioactivity bound to the membranes. 100% specific binding was defined as the difference in radioactivity (cpm) bound to cell membranes in the absence and presence of 1 μM α-MSH. The cpm obtained in the presence of test compounds are normalized with respect to 100% specific binding to determine the percent inhibition of ^125I-NDP-a-MSH binding. Each assay was conducted in triplicate and the actual mean values are described, with results less than 0% reported as 0%.
# [2] = target: T1, B-16 mouse melanoma cells (containing MC1-R) (Mus musculus, UniProt Q01727); test: Competitive inhibition binding assay, 125I-NDP-α-MSH, B-16 mouse melanoma cell membranes; details: 1 μM test compound; 0.4 nM 125I-NDP-α-MSH; mean of triplicate; results less than 0% reported as 0%; read-out: Inhibition at 1 μM MC1-R (murine)
# T1 construct: B-16 mouse melanoma cells (containing MC1-R); endogenous in cells; host or cells: B-16 mouse melanoma cells
# T1 sequence (Q01727 whole entry): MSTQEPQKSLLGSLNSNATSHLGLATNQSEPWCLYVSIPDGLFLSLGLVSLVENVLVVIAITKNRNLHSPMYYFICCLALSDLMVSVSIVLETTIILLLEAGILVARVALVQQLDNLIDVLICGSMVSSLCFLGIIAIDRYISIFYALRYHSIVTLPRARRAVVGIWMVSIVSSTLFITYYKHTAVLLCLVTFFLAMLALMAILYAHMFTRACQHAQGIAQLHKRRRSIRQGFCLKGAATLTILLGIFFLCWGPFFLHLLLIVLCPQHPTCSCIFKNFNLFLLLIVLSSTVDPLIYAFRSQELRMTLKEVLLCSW
# Procedure: as §1, §2
# [3] = target: hMC3-R (Homo sapiens, UniProt P41968); test: Competitive inhibition binding assay, 125I-NDP-α-MSH, hMC3-R membranes; details: 1 μM test compound; 0.4 nM 125I-NDP-α-MSH; mean of triplicate; results less than 0% reported as 0%; read-out: Inhibition at 1 μM MC3-R
# Sequence of hMC3-R (P41968 whole entry): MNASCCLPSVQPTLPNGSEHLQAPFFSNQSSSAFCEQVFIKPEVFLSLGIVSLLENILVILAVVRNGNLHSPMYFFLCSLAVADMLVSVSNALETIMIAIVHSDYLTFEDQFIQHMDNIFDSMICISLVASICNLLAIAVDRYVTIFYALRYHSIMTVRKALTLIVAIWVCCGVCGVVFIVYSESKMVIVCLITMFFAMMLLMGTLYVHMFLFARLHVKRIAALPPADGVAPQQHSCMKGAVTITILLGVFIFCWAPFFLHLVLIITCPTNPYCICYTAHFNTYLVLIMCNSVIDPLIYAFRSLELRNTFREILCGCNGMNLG
# Procedure: as §1, §2
# [4] = target: hMC4-R (Homo sapiens, UniProt P32245); test: Competitive inhibition binding assay, 125I-NDP-α-MSH, hMC4-R membranes; details: 1 μM test compound; 0.4 nM 125I-NDP-α-MSH; mean of triplicate; results less than 0% reported as 0%; read-out: Inhibition at 1 μM MC4-R
# Sequence of hMC4-R (P32245 whole entry): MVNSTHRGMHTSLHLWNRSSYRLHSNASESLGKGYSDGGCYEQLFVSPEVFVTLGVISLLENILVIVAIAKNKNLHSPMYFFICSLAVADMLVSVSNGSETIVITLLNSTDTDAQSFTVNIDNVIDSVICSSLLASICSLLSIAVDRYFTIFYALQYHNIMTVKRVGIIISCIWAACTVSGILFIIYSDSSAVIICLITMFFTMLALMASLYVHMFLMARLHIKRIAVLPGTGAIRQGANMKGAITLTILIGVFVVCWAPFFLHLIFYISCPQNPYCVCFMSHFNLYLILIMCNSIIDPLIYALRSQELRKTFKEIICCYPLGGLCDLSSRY
# Procedure: as §1, §2
# [5] = target: hMC5-R (Homo sapiens, UniProt P33032); test: Competitive inhibition binding assay, 125I-NDP-α-MSH, hMC5-R membranes; details: 1 μM test compound; 0.4 nM 125I-NDP-α-MSH; mean of triplicate; results less than 0% reported as 0%; read-out: Inhibition at 1 μM MC5-R
# Sequence of hMC5-R (P33032 whole entry): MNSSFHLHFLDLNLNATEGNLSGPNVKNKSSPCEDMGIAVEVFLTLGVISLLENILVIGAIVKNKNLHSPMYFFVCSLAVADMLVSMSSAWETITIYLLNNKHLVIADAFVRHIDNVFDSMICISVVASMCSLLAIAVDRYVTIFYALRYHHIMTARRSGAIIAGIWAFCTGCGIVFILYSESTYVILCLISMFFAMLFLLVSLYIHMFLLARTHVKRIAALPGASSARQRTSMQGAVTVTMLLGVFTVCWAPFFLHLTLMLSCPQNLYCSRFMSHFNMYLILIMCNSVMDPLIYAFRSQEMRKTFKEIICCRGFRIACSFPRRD
# Procedure: as §1, §2
# Sequence of hMC1-R (Q01726 whole entry): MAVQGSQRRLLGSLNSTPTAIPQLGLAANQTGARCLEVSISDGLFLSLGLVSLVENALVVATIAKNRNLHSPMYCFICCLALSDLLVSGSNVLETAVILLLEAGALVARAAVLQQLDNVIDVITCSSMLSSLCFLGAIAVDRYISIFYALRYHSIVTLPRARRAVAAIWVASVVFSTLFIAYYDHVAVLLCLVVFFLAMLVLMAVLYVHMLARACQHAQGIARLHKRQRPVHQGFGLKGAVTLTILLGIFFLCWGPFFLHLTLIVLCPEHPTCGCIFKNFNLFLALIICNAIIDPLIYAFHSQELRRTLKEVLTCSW
smiles,measurement,setting,value
"N[C@H](Cc1ccccc1)C(=O)N1C[C@@H](Cc2ccc3ccccc3c2)NC[C@@H]1Cc1ccccc1 [Example 7, (R)-2-Amino-1-((2S,5R)-2-benzyl-5-naphthalen-2-ylmethyl-piperazin-1-yl)-3-phenyl-propan-1-oneylamino-3-phenyl-propan-1-one]",inhibition at 1 µM,[1],17%
same,inhibition at 1 µM,[2],0%
same,inhibition at 1 µM,[3],9%
same,inhibition at 1 µM,[4],16%
same,inhibition at 1 µM,[5],13%
"N[C@H](Cc1ccccc1)C(=O)N1C[C@H](Cc2ccccc2)NC[C@H]1Cc1ccccc1 [Example 6, (R)-2-Amino-1-((2R,5S)-2,5-dibenzyl-piperazin-1-yl)-3-phenyl-propan-1-one]",inhibition at 1 µM,[1],0%
same,inhibition at 1 µM,[2],0%
same,inhibition at 1 µM,[3],12%
same,inhibition at 1 µM,[4],4%
same,inhibition at 1 µM,[5],13%
"N[C@H](Cc1ccc(Cl)cc1Cl)C(=O)N1C[C@H](Cc2ccccc2)NC[C@H]1Cc1ccc2ccccc2c1 [Example 5, (R)-2-Amino-1-((2R,5S)-5-benzyl-2-naphthalen-2-ylmethyl-piperazin-1-yl)-3-(2,4-dichloro-phenyl)-propan-1-one]",inhibition at 1 µM,[1],0%
same,inhibition at 1 µM,[3],12%
same,inhibition at 1 µM,[4],34%
same,inhibition at 1 µM,[5],22%
"O=C(CCc1ccc(Cl)cc1Cl)N1C[C@H](Cc2ccccc2)NC[C@H]1Cc1ccc2ccccc2c1 [Example 2, 1-((2R,5S)-5-Benzyl-2-naphthalen-2-ylmethyl-piperazin-1-yl)-3-(2,4-dichloro-phenyl)-propan-1-one]",inhibition at 1 µM,[1],9%
same,inhibition at 1 µM,[3],9%
same,inhibition at 1 µM,[4],18%
same,inhibition at 1 µM,[5],6%
"N[C@@H](Cc1ccccc1)C(=O)N1C[C@H](Cc2ccccc2)NC[C@H]1Cc1ccc2ccccc2c1 [Example 4, (S)-2-Amino-1-((2R,5S)-5-benzyl-2-naphthalen-2-ylmethyl-piperazin-1-yl)-3-phenyl-propan-1-one]",inhibition at 1 µM,[1],6%
same,inhibition at 1 µM,[3],13%
same,inhibition at 1 µM,[4],25%
same,inhibition at 1 µM,[5],11%
"N[C@H](Cc1ccccc1)C(=O)N1C[C@H](Cc2ccccc2)NC[C@H]1Cc1ccc2ccccc2c1 [Example 1, (R)-2-Amino-1-((2R,5S)-5-benzyl-2-naphthalen-2-ylmethyl-piperazin-1-yl)-3 phenyl-propan-1-one]",inhibition at 1 µM,[1],0%
same,inhibition at 1 µM,[3],14%
same,inhibition at 1 µM,[4],33%
same,inhibition at 1 µM,[5],8%
"N[C@H](Cc1ccc2ccccc2c1)C(=O)N1C[C@H](Cc2ccccc2)NC[C@H]1Cc1ccc2ccccc2c1 [Example 3, (R)-2-Amino-1-((2R,5S)-5-benzyl-2-naphthalen-2-ylmethyl-piperazin-1-yl)-3-naphthalen-2-yl-propan-1-one]",inhibition at 1 µM,[1],10%
same,inhibition at 1 µM,[3],19%
same,inhibition at 1 µM,[4],39%
same,inhibition at 1 µM,[5],21%
